Assay results published in ChEMBL document CHEMBL3792313, “Rational design, synthesis and 2D-QSAR study of novel vasorelaxant active benzofuran-pyridine hybrids” (Bioorg Med Chem Lett, 2016).
Where a name gives a salt, the structure may show the parent alone.

Tested on: Thoracic aorta
Test: Vasodilative activity in isolated Wistar rat thoracic aorta assessed as inhibition of norepinephrine hydrochloride-induced contraction
Assay type: functional, tissue-based

Structure (SMILES) | IC50
CCOc1nc(-c2cc3ccccc3o2)cc(-c2cc(OC)ccc2OC)c1C#N | 327 µM
CCOc1nc(-c2cc3ccccc3o2)cc(-c2ccc(Br)cc2)c1C#N | 227 µM
COc1nc(-c2cc3ccccc3o2)cc(-c2ccc(Cl)cc2)c1C#N | 286 µM
CCOc1nc(-c2cc3ccccc3o2)cc(-c2ccc(C)cc2)c1C#N | 290 µM
COc1nc(-c2cc3ccccc3o2)cc(-c2ccc(F)cc2)c1C#N | 321 µM
COc1nc(-c2cc3ccccc3o2)cc(-c2ccc(N(C)C)cc2)c1C#N | 278 µM
CCCCc1oc2ccccc2c1C(=O)c1cc(I)c(OCCN(CC)CC)c(I)c1 [AMIODARONE HYDROCHLORIDE] | 312 µM
CCn1cc(-c2cc(-c3cc4ccccc4o3)nc(OC)c2C#N)c2ccccc21 | 299 µM
CCOc1nc(-c2cc3ccccc3o2)cc(-c2ccc3ccccc3c2)c1C#N | 423 µM
COc1nc(-c2cc3ccccc3o2)cc(-c2ccc(C)cc2)c1C#N | 266 µM
COc1nc(-c2cc3ccccc3o2)cc(-c2ccc(Br)cc2)c1C#N | 298 µM
CCOc1nc(-c2cc3ccccc3o2)cc(-c2cccc3ccccc23)c1C#N | 344 µM
CCOc1nc(-c2cc3ccccc3o2)cc(-c2ccc(N(C)C)cc2)c1C#N | 338 µM
CCOc1nc(-c2cc3ccccc3o2)cc(-c2ccccc2)c1C#N | 310 µM
CCOc1nc(-c2cc3ccccc3o2)cc(-c2cc(OC)c(OC)c(OC)c2)c1C#N | 365 µM

Other lines, results leading:

IC50 | Structure (SMILES)
358 µM | CCOc1nc(-c2cc3ccccc3o2)cc(-c2cn(CC)c3ccccc23)c1C#N
262 µM | COc1ccc(-c2cc(-c3cc4ccccc4o3)nc(OC)c2C#N)cc1
442 µM | CCOc1nc(-c2cc3ccccc3o2)cc(-c2ccc(Cl)cc2Cl)c1C#N
232 µM | COc1nc(-c2cc3ccccc3o2)cc(-c2ccccc2)c1C#N
310 µM | COc1cc(-c2cc(-c3cc4ccccc4o3)nc(OC)c2C#N)cc(OC)c1OC
425 µM | COc1ccc(-c2cc(-c3cc4ccccc4o3)nc(OC)c2C#N)c(OC)c1
163 µM | COc1nc(-c2cc3ccccc3o2)cc(-c2cccs2)c1C#N
359 µM | COc1nc(-c2cc3ccccc3o2)cc(-c2cccc3ccccc23)c1C#N
488 µM | CCOc1nc(-c2cc3ccccc3o2)cc(-c2ccc(OC)cc2OC)c1C#N
417 µM | CCOc1nc(-c2cc3ccccc3o2)cc(-c2ccc(C)o2)c1C#N
320 µM | COc1nc(-c2cc3ccccc3o2)cc(-c2ccc3ccccc3c2)c1C#N
246 µM | COc1ccc(OC)c(-c2cc(-c3cc4ccccc4o3)nc(OC)c2C#N)c1
285 µM | COc1nc(-c2cc3ccccc3o2)cc(-c2ccc(C)o2)c1C#N
221 µM | CCOc1nc(-c2cc3ccccc3o2)cc(-c2ccc(Cl)cc2)c1C#N
396 µM | CCOc1nc(-c2cc3ccccc3o2)cc(-c2ccc(F)cc2)c1C#N
322 µM | COc1nc(-c2cc3ccccc3o2)cc(-c2ccc(Cl)cc2Cl)c1C#N
262 µM | COc1nc(-c2cc3ccccc3o2)cc(-c2cn(C)c3ccccc23)c1C#N
204 µM | CCOc1nc(-c2cc3ccccc3o2)cc(-c2ccc(OC)cc2)c1C#N
308 µM | CCOc1nc(-c2cc3ccccc3o2)cc(-c2cccs2)c1C#N
327 µM | CCOc1nc(-c2cc3ccccc3o2)cc(-c2cn(C)c3ccccc23)c1C#N
